Values of other authors, collected in patent US8871744B2, “Compounds and methods for selectively targeting tumor-associated mucins” (B & G Partyers, LLC, priority 2010, dated 2014).

Columns and labels:
[1] = tested on: normal mammary epithelial cells
[2] = tested on: sialomucin complex/rat Muc4; settings: transfected MEC, activated in fetal calf serum
[3] = tested on: NMuMG cells; settings: NMuMG cells stimulated with TGF-β1

CN[C@@H]1C[C@H]2O[C@@](C)([C@@H]1OC)n1c3ccccc3c3c4c(c5c6ccccc6n2c5c31)C(=O)NC4 [staurosporine]
epithelial to mesenchymal transition stimulated by TGF-β [1]: abrogated | Muc4 protein expression [2]: inhibited

NC(=O)c1ccc(-c2nc(-c3ccc4c(c3)OCO4)c(-c3ccccn3)[nH]2)cc1 [SB431542, 4-[4-(1,3-benzodioxol-5-yl)-5-(2-pyridinyl)-1H-imidazol-2-yl]benzamide]
morphological changes associated with EMT [3]: inhibited | phosphorylation of Smad2 [3]: inhibited
